Where a name gives a salt, the structure may show the parent alone. Read-outs that look alike come from different tables or passages of the source.
Target: dopamine D2 receptor (Rattus norvegicus, UniProt P61169)
Test: Receptor binding assay, 3H-ADTN displacement on rat striatal membranes (affinity for the dopamine D2 receptor)
Parameters: species or system rat (Sprague Dawley)
[1] = rat striatal membranes, 1 nM 3H-ADTN, 0.1 μM SCH 23390, 40 min at 25° C., non-specific binding with 50 nM spiperone, read-out: Ki, affinity of the test substances for the dopamine D2 receptor

Chain of dopamine D2 receptor (P61169 whole entry): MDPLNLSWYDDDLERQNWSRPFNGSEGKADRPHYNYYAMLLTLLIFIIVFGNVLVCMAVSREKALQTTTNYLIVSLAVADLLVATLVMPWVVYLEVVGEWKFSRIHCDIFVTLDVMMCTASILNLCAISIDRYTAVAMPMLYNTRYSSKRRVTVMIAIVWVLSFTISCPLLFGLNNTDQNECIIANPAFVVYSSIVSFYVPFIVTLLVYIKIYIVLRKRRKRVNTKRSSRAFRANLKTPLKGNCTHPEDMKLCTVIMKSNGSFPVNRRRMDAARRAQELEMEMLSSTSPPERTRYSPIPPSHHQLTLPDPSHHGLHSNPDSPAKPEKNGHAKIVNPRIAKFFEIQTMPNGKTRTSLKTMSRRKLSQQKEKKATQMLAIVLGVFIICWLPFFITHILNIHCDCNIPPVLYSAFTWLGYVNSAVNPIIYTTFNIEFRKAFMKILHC
Experimental: Striata from rats (Sprague Dawley, Charles River) were homogenized immediately after removal in 0.32M sucrose solution (0° C.). The homogenate was filtered through gauze, the filtrate was centrifuged at 1000 ×g (5 min at 4° C.) and the resulting supernatant was centrifuged at 40000 ×g (4° C., 10 min). The residue (membranes) was taken up in incubation buffer (50 mM tris-HCl, 1 mM MgCl2 and 0.1% ascorbic acid, pH 7.4) and incubated at 37° C. for 20 min. The residue was subsequently washed 2× with incubation buffer by resuspension and recentrifugation. The membranes were frozen in portions in liquid nitrogen.
The assay mixtures (1 ml) were composed of membranes (380 μg of protein), 1 nM ^3 H-ADTN (NEN, Dreieich Germany, specific radioactivity 1.4 TBq/mmol) and 0.1 μM SCH 23390 (total binding) or a) with the addition of 50 nM spiperone (non-specific binding) or b) with test substance. The mixtures were prepared in triplicate.
After the incubation (40 min at 25° C.) the mixtures were filtered through glass fiber filters (Whatman GF/B) and briefly washed with ice-cold washing buffer (tris-HCl, pH 7.4). The radioactivity retained on the filters was determined by liquid scintillation counting. The non-specific binding comprised about 40-50% of the total binding.
The evaluation of the competition plots and the determination of the dissociation constant took place by iterative non-linear regression analysis based on the "ligand" program (Muson and Rodbard: Anal. Biochem. 107 (1980) 220).

In the case of `Cc1nc(N)sc1SCCN1CCC(c2ccccc2)CC1` [Example 1, 2-Amino-4-methyl-5-[2-(4-phenylpiperidinyl)ethyl-thio]thiazole hydrochloride], the Ki [1] is reported as 12 nM.
Compound `Cc1nc(N)sc1SCCN1CC=C(c2ccccc2)CC1` [Example 2, 2-Amino-5-[2-(1,2,3,6-tetrahydro-4-phenylpyridinyl)-ethylthio]-4-methylthiazole hydrochloride] has a Ki of 3 nM.
In the case of `Cc1nc(N)sc1SCCN1CCN(c2ccccc2)CC1` [Example 3, 2-Amino-4-methyl-5-[2-(4-phenylpiperazinyl)ethylthio]thiazole hydrochloride], the Ki [1] is reported as 19 nM.
In the case of `CCCN(CCSc1sc(N)nc1C)CCc1ccccc1` [Example 5, 2-Amino-4-methyl-5-[2-(N-phenethyl-N-propylamino)-ethylthio]thiazole hydrochloride], the Ki [1] is reported as 18 nM.
Compound `CCCN(CCCSc1sc(N)nc1C)CCc1ccccc1` [Example 7, 2-Amino-4-methyl-5-[3-(N-phenethyl-N-propylamino)propylthio]thiazole tartrate] has a Ki [1] of 9 nM.
